Experimental data as given in patent publication US12311058B2, “Single protein-encapsulated pharmaceutics for enhancing therapeutic effects” (priority 2018, dated 2025).

Legend:
[1] = congestive heart failure incidents; cited from earlier work
[2] = mouse model, documented; cited from earlier work
[3] = system: breast cancer cell line, MDA-MB231; experiment: Xenograft model efficacy study, breast cancer MDA-MB231, in female athymic nude mice; details: iv; for % TGI, percent tumor growth inhibition compared to Group 1 / MTV (n) Day 20, median tumor volume: Doxorubicin 5, Composition 7 10, Mitoxantrone 3, Composition 6 6 mg/kg, Day 20
Description: An efficacy study against breast cancer tumor was carried out on the materials from Example 8 (Composition 7) and Example 7 (Composition 6).

[4] = Dialysis study on free form of doxorubicin, HSA/DOX mixture and Composition 7; format: physicochemical; details: PBS pH=7.4
Description: The dialysis tube was sealed and put into a glass beaker containing 100 mL of either PBS buffer (pH=7.4) or acetate buffer (pH=5.5) with a magnetic stirring bar. With constant stirring, aliquots (500 uL) at different time points were taken from the glass beaker and analyzed by UV spectrometer. […] It is most interesting to notice that HSA-encapsulated DOX is almost 3.5 times faster at pH=5.5 than at pH=7.4 for being dialyzed out from the dialysis tube.

SMILES | Lifetime limit (cumulative dose) [1] [mg/m^2] | Maximum tolerated dose (MTD) [2] [mg/kg] | Deaths NTR (non-treatment-related death) ([3]; qwk × 3, 20 day study) | Deaths TR (treatment-related death) ([3]; qwk × 3, 20 day study) | Regressions CR (complete regression) ([3]; qwk × 3, 20 day study) | Regressions PR (partial regression) ([3]; qwk × 3, 20 day study) | % TGI, percent tumor growth inhibition compared to Group 1 ([3]; qwk × 3) [%] | MTV (n) Day 20, median tumor volume ([3]; qwk × 3) | Dialysis behaviour of free form [4] | Mean BW Nadir, lowest group mean body weight as % change from Day 1 ([3]; qwk × 3, 20 day study) [%] | Day of Mean BW Nadir ([3]; mouse, in vivo) [days]
COc1cccc2c1C(=O)c1c(O)c3c(c(O)c1C2=O)C[C@@](O)(C(=O)CO)C[C@@H]3O[C@H]1C[C@H](N)[C@H](O)[C@H](C)O1 [Doxorubicin, doxorubicin] | < 450 | 5 | 0 | 0 | 0 | 0 | 34 | 453 (8) mm^2 | precipitated in the dialysis bag due to the poor solubility at pH=7.4 |  | 
O=C1c2c(O)ccc(O)c2C(=O)c2c(NCCNCCO)ccc(NCCNCCO)c21 [Mitoxantrone, mitoxantrone] |  | 3 | 0 | 0 | 0 | 0 | 27 | 498 (8) mm^2 |  | −0.2 | 8
